Converted amounts (≈) assume the structure as drawn. The source made the active and inactive calls. The calls are words filed in the database; no cut-off is given here.
Experiments:
[1] = system: Candida albicans; assay: Antifungal activity against Candida albicans SC5314 assessed as reduction in fungal growth incubated for 72 hrs by CLSI protocol based broth microdilution method; assay type: functional
[2] = system: Nakaseomyces glabratus; assay: Antifungal activity against Candida glabrata ATCC 0001 assessed as reduction in fungal growth incubated for 72 hrs by CLSI protocol based broth microdilution method; assay type: functional
[3] = system: Pichia kudriavzevii; assay: Antifungal activity against Candida krusei ATCC 6258 assessed as reduction in fungal growth incubated for 72 hrs by CLSI protocol based broth microdilution method; assay type: functional
[4] = system: Candida tropicalis; assay: Antifungal activity against Candida tropicalis ATCC 1369 assessed as reduction in fungal growth incubated for 72 hrs by CLSI protocol based broth microdilution method; assay type: functional
[5] = system: Aspergillus fumigatus; assay: Antifungal activity against Aspergillus fumigatus KM8001 assessed as reduction in fungal growth incubated for 72 hrs by CLSI protocol based broth microdilution method; assay type: functional
[6] = system: Candida albicans; assay: Antifungal activity against Candida albicans strain 17 assessed as reduction in fungal growth incubated for 72 hrs by CLSI protocol based broth microdilution method; assay type: functional
[7] = system: Candida albicans; assay: Antifungal activity against Candida albicans strain CaR assessed as reduction in fungal growth incubated for 72 hrs by CLSI protocol based broth microdilution method; assay type: functional
[8] = system: Candida albicans; assay: Antifungal activity against Candida albicans strain 632 assessed as reduction in fungal growth incubated for 72 hrs by CLSI protocol based broth microdilution method; assay type: functional
[9] = system: Candida albicans; assay: Antifungal activity against Candida albicans strain 901 assessed as reduction in fungal growth incubated for 72 hrs by CLSI protocol based broth microdilution method; assay type: functional
[10] = system: Candida albicans; assay: Antifungal activity against Candida albicans strain 904 assessed as reduction in fungal growth incubated for 72 hrs by CLSI protocol based broth microdilution method; assay type: functional
[11] = system: Candida albicans; assay: Antifungal activity against Candida albicans ATCC SC5314 assessed as decrease in fungal cell density by fluorescence microscopy; assay type: functional, organism-based
[12] = system: Candida albicans; assay: Induction of apoptosis against Candida albicans ATCC SC5314 assessed as viable cells measured after 48 hrs by Annexin V-FITC/propidium iodide staining based flow cytometry (reference value: 80.78 %); assay type: functional
[13] = system: Candida albicans; assay: Induction of apoptosis against Candida albicans ATCC SC5314 assessed as mild apoptotic cells measured after 48 hrs by Annexin V-FITC/propidium iodide staining based flow cytometry (Rvb =0.29 %); assay type: functional
[14] = system: Candida albicans; assay: Induction of apoptosis against Candida albicans ATCC SC5314 assessed as necrotic cells measured after 48 hrs by Annexin V-FITC/propidium iodide staining based flow cytometry (reference value: 18.22 %); assay type: functional
[15] = system: Candida albicans; assay: Induction of apoptosis against Candida albicans ATCC SC5314 assessed as late apoptotic cells measured after 48 hrs by Annexin V-FITC/propidium iodide staining based flow cytometry (reference value: 0.71 %); assay type: functional
[16] = system: Candida albicans; assay: Inhibition of SE/CYP51 in Candida albicans ATCC SC5314 assessed as ergosterol level incubated for 48 hrs by LC/MS analysis; design: scale not given: the % may be the effect or the level left
[17] = system: Candida albicans; assay: Inhibition of SE/CYP51 in Candida albicans ATCC SC5314 assessed as squalene level incubated for 48 hrs by LC/MS analysis; design: scale not given: the % may be the effect or the level left
[18] = system: Candida albicans; assay: Inhibition of SE/CYP51 in Candida albicans ATCC SC5314 assessed as lanosterol level incubated for 48 hrs by LC/MS analysis; design: scale not given: the % may be the effect or the level left
[19] = system: Candida albicans; assay: Inhibition of SE/CYP51 in Candida albicans ATCC SC5314 assessed as eburicol level incubated for 48 hrs by LC/MS analysis; design: scale not given: the % may be the effect or the level left
[20] = system: Candida albicans; assay: Inhibition of SE/CYP51 in Candida albicans ATCC SC5314 assessed as unknown sterol level incubated for 48 hrs by LC/MS analysis; design: scale not given: the % may be the effect or the level left
[21] = Inhibition of SE in Candida albicans ATCC SC5314 measured after 30 mins by HPLC analysis
[22] = target: Lanosterol 14-alpha demethylase (Candida albicans (strain SC5314 / ATCC MYA-2876) (Yeast), UniProt P10613); assay: Inhibition of CYP51 in Candida albicans ATCC SC5314 measured after 30 mins by HPLC analysis
Sequence of Lanosterol 14-alpha demethylase (P10613 whole entry): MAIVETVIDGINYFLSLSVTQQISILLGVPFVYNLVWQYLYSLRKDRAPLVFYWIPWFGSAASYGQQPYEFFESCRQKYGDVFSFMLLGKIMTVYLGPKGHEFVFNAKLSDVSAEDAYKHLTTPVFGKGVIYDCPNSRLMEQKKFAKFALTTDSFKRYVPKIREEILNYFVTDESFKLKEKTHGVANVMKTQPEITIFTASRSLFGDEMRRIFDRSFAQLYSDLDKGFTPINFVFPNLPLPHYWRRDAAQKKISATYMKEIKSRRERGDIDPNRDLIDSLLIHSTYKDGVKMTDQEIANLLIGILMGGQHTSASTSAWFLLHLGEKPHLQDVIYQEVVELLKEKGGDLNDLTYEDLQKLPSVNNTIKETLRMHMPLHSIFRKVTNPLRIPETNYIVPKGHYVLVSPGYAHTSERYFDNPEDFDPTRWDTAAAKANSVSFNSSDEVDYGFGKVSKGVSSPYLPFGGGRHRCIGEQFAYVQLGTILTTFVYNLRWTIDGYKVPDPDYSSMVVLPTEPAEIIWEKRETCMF

[23] = system: Candida albicans; assay: Antifungal activity against Candida albicans ATCC SC5314 infected in mouse assessed as reduction on endothelial fungal infection at 4 mg/kg,ip administrated every 2 days for 14 days by hematoxylin-eosin staining based assay; assay type: functional, organism-based; conditions: time 14.0 day
[24] = Toxicity in mouse infected with Candida albicans ATCC SC5314 assessed as effect on lung at 4 mg/kg,ip administrated every 2 days for 14 days by hematoxylin-eosin staining based assay; assay type: organism-based; conditions: in vivo, 336 h, time 14 day
[25] = Toxicity in mouse infected with Candida albicans ATCC SC5314 assessed as effect on liver at 4 mg/kg,ip administrated every 2 days for 14 days by hematoxylin-eosin staining based assay; assay type: organism-based; conditions: in vivo, 336 h, time 14 day
[26] = Toxicity in mouse infected with Candida albicans ATCC SC5314 assessed as effect on spleen at 4 mg/kg,ip administrated every 2 days for 14 days by hematoxylin-eosin staining based assay; assay type: organism-based; conditions: in vivo, 336 h, time 14 day
[27] = Toxicity in mouse infected with Candida albicans ATCC SC5314 assessed as effect on kidney at 4 mg/kg,ip administrated every 2 days for 14 days by hematoxylin-eosin staining based assay; assay type: organism-based; conditions: in vivo, 336 h, time 14 day
[28] = Toxicity in mouse infected with Candida albicans ATCC SC5314 assessed as effect on heart at 4 mg/kg,ip administrated every 2 days for 14 days by hematoxylin-eosin staining based assay; assay type: organism-based; conditions: in vivo, 336 h, time 14 day
[29] = Toxicity in mouse assessed as effect on aspartate transaminase level; conditions: in vivo
[30] = Toxicity in mouse assessed as effect on alanine transaminase level; conditions: in vivo
[31] = Toxicity in mouse assessed as effect on blood urea nitrogen level; conditions: in vivo
[32] = system: Candida albicans; assay: Antifungal activity against Candida albicans ATCC SC5314 infected in mouse assessed as decrease in fungal infection at 4 mg/kg,ip administrated every 2 days for 14 days; assay type: functional, organism-based; conditions: time 14.0 day
[33] = system: Mus musculus; assay: Antifungal activity against Candida albicans ATCC SC5314 infected in mouse assessed as increase in body weight at 4 mg/kg,ip administrated every 2 days for 14 days; assay type: functional, organism-based; conditions: time 14.0 day

For `O=C(NC(Cn1ccnc1)c1ccccc1)c1cccc2ccccc12` (stereo not drawn), the MIC50 [1] was 0.5 µg/mL (≈ 1.46 µM), the MIC50 [2] was 1 µg/mL (≈ 2.93 µM) and the MIC50 [3] was 1 µg/mL (≈ 2.93 µM). It also gave an MIC50 [4] of 0.5 µg/mL (≈ 1.46 µM) and an MIC50 [5] greater than 8 µg/mL.

With `O=C(/C=C/c1ccc2ccccc2c1)NC(Cn1cncn1)C(=O)c1ccccc1` (stereo not drawn) the MIC50 [1] was 0.125 µg/mL (≈ 0.315 µM), the MIC50 [2] was 0.125 µg/mL (≈ 0.315 µM) and the MIC50 [3] was 0.5 µg/mL (≈ 1.26 µM). The MIC50 [4] was 0.25 µg/mL (≈ 0.631 µM), the MIC50 [5] was 2 µg/mL (≈ 5.04 µM) and the MIC50 [6] was 4 µg/mL (≈ 10.1 µM). The MIC50 [7] was 2 µg/mL (≈ 5.04 µM), the MIC50 [8] was 2 µg/mL (≈ 5.04 µM) and the MIC50 [9] was 4 µg/mL (≈ 10.1 µM). For the same compound, the MIC50 [10] was 4 µg/mL (≈ 10.1 µM), the Activity [11] was “Active” and the Activity [12] was 54.66%. The Activity [13] was 0.36%, the Activity [14] was 43.87% and the Activity [15] was 1.11%. For the same compound, the Activity [16] was 16.4%, the Activity [17] was 28.9% and the Activity [18] was 13.6%. For the same compound, the Activity [19] was 34.7%, the Activity [20] was 6.4% and the IC50 [21] was 650 nM. The IC50 [22] was 323 nM, the Activity [23] was “Active” and the Activity [24] was “Non-Toxic”. The Activity [25] was “Non-Toxic”, the Activity [26] was “Non-Toxic” and the Activity [27] was “Non-Toxic”. For the same compound, the Activity [28] was “Non-Toxic”, the Activity [29] was 107.5 IU/L and the Activity [30] was 96.5 IU/L. For the same compound, the Activity [31] was 6.8 mmol/L, the Activity [32] was “Active” and the Activity [33] was “Active”.

In the case of `O=C(/C=C/c1ccc2ccccc2c1)NC(C(=O)NCc1ccncc1)c1ccccc1` (stereo not drawn), the MIC50 [1] is reported as 1 µg/mL (≈ 2.37 µM), the MIC50 [2] is reported as 1 µg/mL (≈ 2.37 µM) and the MIC50 [3] is reported as 2 µg/mL (≈ 4.74 µM). The MIC50 [4] was 1 µg/mL (≈ 2.37 µM) and the MIC50 [5] was greater than 8 µg/mL.

For `O=C(/C=C/c1ccc2ccccc2c1)NC(C(=O)NCc1cccnc1)c1ccccc1` (stereo not drawn), the MIC50 [1] was 2 µg/mL (≈ 4.74 µM), the MIC50 [2] was 0.5 µg/mL (≈ 1.19 µM) and the MIC50 [3] was 1 µg/mL (≈ 2.37 µM). For the same compound, the MIC50 [4] was 2 µg/mL (≈ 4.74 µM) and the MIC50 [5] was greater than 8 µg/mL.

Compound `OC(Cn1cncn1)(Cn1cncn1)c1ccc(F)cc1F` [FLUCONAZOLE] has an MIC50 [1] of 0.25 µg/mL (≈ 0.816 µM), an MIC50 [2] of 0.5 µg/mL (≈ 1.63 µM) and an MIC50 [3] of 0.5 µg/mL (≈ 1.63 µM). For the same compound, the MIC50 [4] was 0.5 µg/mL (≈ 1.63 µM), the MIC50 [5] was greater than 8 µg/mL and the MIC50 [6] was greater than 8 µg/mL. The MIC50 [7] was greater than 8 µg/mL, the MIC50 [8] was greater than 8 µg/mL and the MIC50 [9] was greater than 8 µg/mL. The MIC50 [10] was greater than 8 µg/mL, the Activity [12] was 74.25% and the Activity [13] was 0.22%. It also gave an Activity [14] of 24.61%, an Activity [15] of 0.92% and an Activity [16] of 26.5%. The Activity [17] was 1.8%, the Activity [18] was 23.6% and the Activity [19] was 41.5%. For the same compound, the Activity [20] was 6.6% and the IC50 [22] was 134 nM.

Work on `O=C(NC(Cn1cncn1)C(=O)c1ccccc1)c1cccc2ccccc12` (stereo not drawn) yielded an MIC50 [1] of 0.5 µg/mL (≈ 1.35 µM), an MIC50 [2] of 0.5 µg/mL (≈ 1.35 µM) and an MIC50 [3] of 0.5 µg/mL (≈ 1.35 µM). For the same compound, the MIC50 [4] was 0.25 µg/mL (≈ 0.675 µM) and the MIC50 [5] was greater than 8 µg/mL.

`O=C(NC(Cn1ccnc1)C(=O)c1ccccc1)c1cccc2ccccc12` (stereo not drawn) showed an MIC50 [1] of 0.5 µg/mL (≈ 1.35 µM), an MIC50 [2] of 1 µg/mL (≈ 2.71 µM) and an MIC50 [3] of 0.25 µg/mL (≈ 0.677 µM). The MIC50 [4] was 0.5 µg/mL (≈ 1.35 µM) and the MIC50 [5] was 4 µg/mL (≈ 10.8 µM).

Reference: ChEMBL document CHEMBL5038624, “Construction and activity evaluation of novel dual-target (SE/CYP51) anti-fungal agents containing amide naphthyl structure” (Eur J Med Chem, 2022)
